Active and inactive are the calls of the source.
Legend:
[1] = luciferase reporter signal suppression in cells – H4 neuroglioma cells, luminescence, dose response (AID 1990); assay type: functional, cell-based
[2] = Luminescence Cell-Based Dose Response HTS to Identify Inhibitors of 5'UTR Stem-Loop Driven Prion Protein mRNA Translation in H4 Neuroglioblastoma Cells. [Related pubchem assays: 1827 (Project Summary), 1813 (Primary HTS)]; assay type: functional
[3] = alpha-synuclein stem-loop luciferase translation blockers – H4 neuroglioma cells, luminescence, confirmation (AID 1988); assay type: functional, cell-based
[4] = molecular target: Cytochrome P450 2C19 (Homo sapiens, UniProt P33261); test: Cytochrome panel assay with activity outcomes. Panel member name: p450-cyp2c19 Compounds with AC50 equal or less than 10 uM are considered active; assay type: functional
Chain of Cytochrome P450 2C19 (P33261 whole entry): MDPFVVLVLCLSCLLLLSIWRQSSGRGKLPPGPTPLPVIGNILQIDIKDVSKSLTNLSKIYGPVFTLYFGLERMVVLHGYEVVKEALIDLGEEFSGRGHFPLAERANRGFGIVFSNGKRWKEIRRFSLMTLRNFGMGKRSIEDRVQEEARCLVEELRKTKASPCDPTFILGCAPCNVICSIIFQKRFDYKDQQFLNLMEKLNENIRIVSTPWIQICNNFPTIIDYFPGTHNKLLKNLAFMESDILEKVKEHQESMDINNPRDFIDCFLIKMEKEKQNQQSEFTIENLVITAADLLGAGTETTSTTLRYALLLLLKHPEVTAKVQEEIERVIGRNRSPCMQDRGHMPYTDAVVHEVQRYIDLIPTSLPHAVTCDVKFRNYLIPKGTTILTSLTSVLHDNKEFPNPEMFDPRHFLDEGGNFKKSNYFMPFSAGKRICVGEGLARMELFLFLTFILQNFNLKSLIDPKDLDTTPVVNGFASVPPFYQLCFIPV

[5] = molecular target: Cytochrome P450 2C9 (Homo sapiens, UniProt P11712)
Chain of Cytochrome P450 2C9 (P11712 whole entry): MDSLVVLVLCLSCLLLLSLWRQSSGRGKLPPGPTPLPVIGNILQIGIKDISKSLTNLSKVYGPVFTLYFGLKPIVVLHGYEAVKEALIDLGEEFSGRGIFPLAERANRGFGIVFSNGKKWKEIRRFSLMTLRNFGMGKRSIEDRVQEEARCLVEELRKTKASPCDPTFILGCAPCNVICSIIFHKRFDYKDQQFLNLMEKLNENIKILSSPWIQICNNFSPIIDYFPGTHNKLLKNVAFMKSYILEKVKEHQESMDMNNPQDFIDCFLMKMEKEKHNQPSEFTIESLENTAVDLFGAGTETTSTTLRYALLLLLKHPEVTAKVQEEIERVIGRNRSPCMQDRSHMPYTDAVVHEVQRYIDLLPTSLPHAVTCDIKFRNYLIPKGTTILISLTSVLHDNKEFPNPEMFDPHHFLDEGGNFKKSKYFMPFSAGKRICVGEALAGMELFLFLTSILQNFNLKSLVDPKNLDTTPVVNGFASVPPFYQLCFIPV

[6] = molecular target: T1, Rac GTPase-activating protein 1 (Homo sapiens, UniProt Q9H0H5); test: blockers of MgcRacGAP-driven Rac1 GTP hydrolysis – biochemical, ADP Hunter fluorescence, primary and confirmatory, confirmation (AID 624330); assay type: functional
T1 sequence (Q9H0H5 whole entry): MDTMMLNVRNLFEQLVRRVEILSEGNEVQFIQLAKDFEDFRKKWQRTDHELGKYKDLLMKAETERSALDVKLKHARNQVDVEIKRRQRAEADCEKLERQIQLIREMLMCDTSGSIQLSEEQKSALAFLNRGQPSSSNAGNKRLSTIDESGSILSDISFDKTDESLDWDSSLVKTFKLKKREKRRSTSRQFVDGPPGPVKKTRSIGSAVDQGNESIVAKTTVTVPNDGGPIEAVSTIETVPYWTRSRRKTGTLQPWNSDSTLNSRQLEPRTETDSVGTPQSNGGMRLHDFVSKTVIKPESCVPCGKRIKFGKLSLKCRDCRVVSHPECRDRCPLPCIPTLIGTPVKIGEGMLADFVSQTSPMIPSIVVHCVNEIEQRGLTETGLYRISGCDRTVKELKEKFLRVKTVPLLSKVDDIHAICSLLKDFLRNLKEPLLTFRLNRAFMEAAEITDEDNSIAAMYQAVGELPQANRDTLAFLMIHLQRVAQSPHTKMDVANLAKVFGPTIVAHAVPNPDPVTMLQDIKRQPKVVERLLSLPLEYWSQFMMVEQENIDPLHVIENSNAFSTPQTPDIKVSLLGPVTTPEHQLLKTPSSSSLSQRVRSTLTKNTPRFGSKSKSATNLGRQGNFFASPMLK

[7] = test system: Streptococcus sp. 'group A'; test: Streptococcus pyogenes SK(-)GAS viability under kanamycin – luminescence, BacTiterGlo, confirmation, counter-screen for streptokinase expression inhibitor project, dose response (AID 1900); assay type: functional, organism-based
[8] = molecular target: T2, Streptokinase A (Streptococcus pyogenes serotype M1, UniProt P10520); test: viability-normalized secreted streptokinase activity reduction – plasminogen activation absorbance, OD405, dose response (AID 1914); assay type: functional, Streptococcus pyogenes M1 GAS;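 further: secreted streptokinase activity via plasminogen activation per viability signal from cell pellet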
T2 sequence (P10520 whole entry): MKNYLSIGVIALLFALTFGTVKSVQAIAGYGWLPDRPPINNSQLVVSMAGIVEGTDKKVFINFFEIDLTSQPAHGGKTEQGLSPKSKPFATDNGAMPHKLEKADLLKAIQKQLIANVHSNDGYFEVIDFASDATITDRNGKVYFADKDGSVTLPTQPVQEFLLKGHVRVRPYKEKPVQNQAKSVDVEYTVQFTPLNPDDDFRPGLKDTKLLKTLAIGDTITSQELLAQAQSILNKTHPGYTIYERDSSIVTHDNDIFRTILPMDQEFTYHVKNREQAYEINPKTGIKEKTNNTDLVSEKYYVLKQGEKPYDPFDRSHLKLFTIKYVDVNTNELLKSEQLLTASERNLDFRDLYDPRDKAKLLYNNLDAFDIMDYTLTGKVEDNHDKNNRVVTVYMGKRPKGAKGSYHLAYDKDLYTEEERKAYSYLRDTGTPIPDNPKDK

[9] = Trypanosoma cruzi growth suppression in host cells – NIH3T3 host cells, beta-gal luminescence, confirmation (AID 2044); assay type: functional, cell-based;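 further: intracellular parasites grown in NIH/3T3 mouse fibroblasts as host cells; luminescent beta-galactosidase reporter signal from transgenic T. cruzi replicating inside host cells; inhibitors lower the luminescence signal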
[10] = NIH3T3 cell viability loss – ATP luminescence, mouse fibroblasts, counter-screen, dose response (AID 2010); assay type: functional, cell-based;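 further: cells exposed to compound for about 90 hours before reading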
[11] = test system: Streptococcus; test: GAS UMAA2166 growth inhibition – luminescence, BacTiterGlo, counter-screen for streptokinase expression inhibitor project, dose response (AID 1915); assay type: functional, organism-based;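 further: potency for reduction of bacterial viability or growth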
[12] = viability of PTEN-deleted HCT116 cells – cell-based, HCT116 PTEN knockout, dose response (AID 1047); assay type: functional;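 further: HCT116 colon tumor cells with PTEN knocked out; cells exposed to compound for 60 hours before readout; potency for loss of cell viability measured by luminescence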
[13] = viability of HCT116 lacking mutant beta-catenin – cell-based, human colon tumor, dose response (AID 1045); assay type: functional;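 further: HCT116 colon tumor cells with beta catenin knocked out; cells exposed to compound for 60 hours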
[14] = Luminescence Cell-Based Dose Retest to Confirm Inhibitors of Cancer Stem Cells. [Related pubchem assays (depositor defined):AID2717, AID2721]; assay type: functional; details: Homo sapiens
[15] = Luminescence Cell-Based Dose Response HTS to Identify Activators of Luciferase Translation or Activity in H4 […] Cells. [Related pubchem assays: 1829 (Project Summary), 1814 (Primary HTS)]; assay type: functional
[16] = test system: H4; test: Luminescence Cell-Based Dose Response HTS to Identify Activators of 5'UTR Stem-Loop Driven Prion Protein mRNA Translation in H4 Neuroglioblastoma Cells. [Related pubchem assays: 1829 (Project Summary), 1814 (Primary HTS)]; assay type: functional; details: Homo sapiens

O=S(=O)(Nc1cc(O)nc(SCc2ccccc2Cl)n1)c1ccccc1
EC50 [1]: > 120 µM (not active) | EC50 [2]: > 120 µM (not active) | EC50 [3]: 12.8 µM (active)

Cc1ccc(Oc2cc(N3CCOCC3)nc(-c3ccccc3)n2)cc1
AC50 ([4]; read-out: AC50): 2.24 µM (inconclusive)

CCOc1ccc(-n2c([S-])c(C(=O)Nc3ccc(S(=O)(=O)N4CCOCC4)cc3)[n+]3cc(C(N)=O)ccc23)cc1
EC50 [1]: 24.1 µM (active) | EC50 [2]: > 120 µM (not active) | EC50 [3]: 17.5 µM (active)

O=C(O)CC[C@@H](C(=O)O)N1C(=O)[C@@H]2[C@@H]3CC[C@H](C3)[C@@H]2C1=O
AC50 [4]: inconclusive

CCSc1nnc(-c2cccnc2)n1-c1ccc(C)c(Cl)c1
EC50 [1]: > 120 µM (not active) | EC50 [2]: > 120 µM (not active) | EC50 [3]: > 120 µM (not active)

COc1cccc(Nc2ncc3nc(C)c(=O)n(CCc4ccccc4)c3n2)c1
AC50 [5]: 3.16 µM (inconclusive)

CCCS(=O)(=O)N1CCN(CC2CC3C=CC2C3)CC1 (stereo not given)
IC50 [6]: 205 µM (active)

COc1cccc(CNCc2ccccc2Br)c1OC
IC50 [6]: 145 µM (active)

CCOC(=O)c1c(NC(=O)c2c(N)n(CCCOC)c3nc4ccccc4nc23)sc2c1CCCC2
EC50 [7]: 4.29 µM (active) | EC50 [8]: > 150 µM (not active) | EC50 [9]: 2.74 µM (active) | EC50 [10]: > 60 µM (not active) | EC50 [11]: 25.1 µM (active)

CN1CCC(=C2c3ccccc3CCc3sccc32)CC1
AC50 ([4]; read-out: AC50): 3.98 µM (inconclusive)

O=C(NCCCN1CCCC1=O)c1ccc(CNS(=O)(=O)c2ccc(F)cc2)cc1
AC50 ([4]; read-out: AC50): 39.8 µM (inconclusive)

CC(C)(C)CC(C)(C)NCC(=O)Nc1c2c(nc3ccccc13)CCC2
IC50 [6]: 88.7 µM (active)

COc1ccc(Oc2c(Cl)cnn(-c3ccc(Cl)c(Cl)c3)c2=O)cc1
EC50 [1]: 15 µM (active) | EC50 [2]: 13.4 µM (active) | EC50 [3]: 8.46 µM (active) | EC50 [12]: 91.6 µM (active) | EC50 [13]: 10.8 µM (active) | AC50 [14]: 4.57 µM (active)

CC(OC(=O)CC1CCCC1)C(=O)Nc1ccc(S(N)(=O)=O)cc1 (stereo not given)
EC50 [7]: > 150 µM (not active) | EC50 [8]: > 150 µM (not active) | EC50 [11]: > 150 µM (not active)

CCOC(=O)N1CCN(C(=O)c2ccc3c(c2)N(C)C(=O)/C(=C\c2ccc(OCC)c(OC)c2)S3)CC1
EC50 [7]: 0.624 µM (active) | EC50 [8]: > 150 µM (not active) | EC50 [11]: 4.57 µM (active)

COc1cccc(CN2CCC(C(=O)N3CCC(C)CC3)CC2)c1
IC50 [6]: 162 µM (active)

CN(C)c1ccc(C2C=C(c3ccc(Cl)cc3OC(F)F)Nc3ncnn32)cc1 (stereo not given)
EC50 [7]: 9.65 µM (active) | EC50 [8]: > 150 µM (not active) | EC50 [11]: 16.4 µM (active)

Cc1cccn2c(O)c(C(=O)NC3CC(C)CC(C)(C)C3)c(=O)nc12 (stereo not given)
EC50 [1]: 13.1 µM (active) | EC50 [2]: 2.59 µM (active) | EC50 [3]: 16.3 µM (active)

CCC(C)c1ccccc1NS(=O)(=O)c1cnn(CC)c1 (stereo not given)
EC50 [7]: > 150 µM (not active) | EC50 [8]: > 150 µM (not active) | EC50 [11]: > 150 µM (not active)

O=C(c1ccc(F)cc1)N1CCN(C2CCCCC2)CC1
IC50 [6]: 196 µM (active)

COCCn1c(=O)c(CCc2ccccc2)nc2cnc(N3CCN(C)CC3)nc21
AC50 ([4]; read-out: AC50): 10 µM (inconclusive)

Cc1ccc(NCCCCO)cc1C
IC50 [6]: 35.9 µM (active)

N#CC1=C(N)OC2=C(CCc3ccccc32)C1c1ccccc1Cl (stereo not given)
EC50 [7]: 4.61 µM (active) | EC50 [8]: 11.9 µM (active) | EC50 [11]: 18.9 µM (active)

CCN1CCN(CC(=O)Nc2cc(C(F)(F)F)ccc2OCCOC)CC1
IC50 [6]: 48.5 µM (active)

Cn1cccc1CNC(=O)Nc1ccc(Cl)c(Cl)c1
EC50 [15]: 1.66 µM (active) | EC50 [16]: > 120 µM (not active)

O=C(c1cnn2c(C(F)(F)F)cc(-c3ccccc3)nc12)N1CCCCC1c1cccnc1 (stereo not given)
EC50 [1]: > 120 µM (not active) | EC50 [2]: 75.7 µM (active) | EC50 [3]: > 120 µM (not active) | EC50 [9]: 0.506 µM (active) | EC50 [10]: > 60 µM (not active)

OCCCCC#Cc1c(-c2ccsc2)sc2ccccc12
EC50 [7]: 6.64 µM (active) | EC50 [8]: > 150 µM (not active) | EC50 [11]: 8.45 µM (active) | AC50 [14]: 3.15 µM (active)

Cc1ccc(CN2CCN(Cc3ccccc3F)CC2)cc1
IC50 [6]: 76.6 µM (active)

C=CCn1c(SCC(=O)Nc2ccc(O)cc2)nc2sc(CC)cc2c1=O
IC50 [6]: 54.5 µM (active)

COc1ccc(NC(=O)c2cccs2)c([N+](=O)[O-])c1
AC50 [5]: 7.94 µM (inconclusive)

COc1ccc(O)c(C(=O)c2coc(=N)c(C(=O)Nc3ccc(SC(F)F)cc3)c2)c1
EC50 [7]: 40.6 µM (active) | EC50 [8]: > 150 µM (not active) | EC50 [11]: > 150 µM (not active)

Cc1cc(-c2nnc(S)n2/N=C/c2ccc(Br)s2)[nH]n1
IC50 [6]: 91.6 µM (active)

CCOC(=O)c1[nH]c2ccccc2c1N=C(S)Nc1cc(C)ccc1C
IC50 [6]: 77.5 µM (active)

CCCCC(=O)Nc1nc(C)c(-c2csc(Nc3cc(OC)ccc3OC)n2)s1
EC50 [1]: 12.2 µM (active) | EC50 [2]: 18.2 µM (active) | EC50 [3]: 7.93 µM (active) | AC50 [14]: 1.35 µM (active)

COc1ccc(-c2nc(/C=C3\C(C)=Nc4ccccc43)c(O)o2)cc1
EC50 [7]: 3.54 µM (active) | EC50 [8]: > 150 µM (not active) | EC50 [11]: 12.1 µM (active)

CN(C)c1ccc(N/C=C/C(=O)C(C)(C)C)cc1
IC50 [6]: 7.98 µM (active)

COc1cc(/C=N/NC(=O)c2ccccc2NS(=O)(=O)c2cccs2)ccc1O
IC50 [6]: 74.5 µM (active)

CC(C)CNCCc1ccccn1
AC50 [4]: inconclusive

CC(=O)NC[C@H]1CN(c2ccc(N3CCOCC3)c(F)c2)C(=O)O1 [LINEZOLID]
EC50 [7]: 0.17 µM (active) | EC50 [8]: 6 µM (inconclusive) | EC50 [11]: 0.645 µM (active)

CCCn1cnc2cc(NCc3cccs3)ccc21
EC50 [15]: 11.8 µM (active) | EC50 [16]: 13.4 µM (active)

COc1ccccc1NC(=O)CSc1nnc(COc2ccc(Cl)cc2)n1Cc1ccco1
EC50 [1]: > 120 µM (not active) | EC50 [2]: > 120 µM (not active) | EC50 [3]: 48 µM (active)

NCCS(=O)(=O)NC1CCCCC1
EC50 [7]: > 150 µM (not active) | EC50 [8]: > 150 µM (not active) | EC50 [11]: > 150 µM (not active)

CC(C)(C)c1cc(-c2ccco2)c(C#N)c(SCC#N)n1
EC50 [1]: 16 µM (active) | EC50 [2]: > 120 µM (not active) | EC50 [3]: 15.2 µM (active)

CC(C)=CCc1c(-c2ccc(O)cc2O)oc2cc3c(c(O)c2c1=O)C=CC(C)(C)O3 [CUDRAFLAVONE B]
EC50 [7]: 3.36 µM (active) | EC50 [8]: > 150 µM (not active) | EC50 [11]: 4.94 µM (active)

COc1cccc(-c2nc(NCCNC(C)=O)c3ccccc3n2)c1
AC50 ([4]; read-out: AC50): 15.8 µM (inconclusive)

O=C(O)Cc1sc(-c2ccc(Cl)cc2)nc1-c1ccccc1
AC50 ([4]; read-out: AC50): 14.1 µM (inconclusive)

O=C(Cc1csc(Nc2[nH]c(=S)nc3ccccc23)n1)NCCCN1CCN(c2cccc(Cl)c2)CC1
EC50 [8]: > 150 µM (not active)

Reference: ChEMBL document CHEMBL1201862, “PubChem BioAssay data set” (2004)
